System: mRNA expressed from the genes (A) to (D) in rat liver
Assay: Behavior of genes (mRNA expression level, oligo-DNA microarray) in rat liver after 28-day oral administration
Format: in vivo
Protocol: A test solution was prepared by dissolving each of the carcinogens and the non-carcinogens shown in Tables 2 to 6 in the corresponding solvent shown in Tables 2 to 6. Each of the thus prepared test solutions and the solvents used for the preparation was administered by oral gavage to rats in each group. As the rats, male rats (F344 SPF rats) at 5 weeks of age obtained from Charles River Laboratories Japan, Inc. were used. The animals were divided into groups, each containing four individuals. The volume of the solvent administered to the vehicle control group was set to the same volume as that of the test solution administered to the carcinogen administration group or the non-carcinogen administration group. The administration of the test solution or the solvent was performed once daily for 28 days. Apiece was excised from the liver of each of the rats after a lapse of 28 days from the initiation of the administration, and the total RNA was extracted and purified.
The expression level of mRNA was compared between each of the chemical substance administration groups and the corresponding vehicle control group, and genes that satisfy the requirements described in (A) to (D) were selected, respectively.
The case where the expression level of mRNA in the carcinogen administration group or the non-carcinogen administration group is 1.5 times or more or 1/1.5 or less of the expression level of the corresponding mRNA expressed in the control group was determined to be significant. In this connection, the determination as to whether or not the change is significant was performed by taking into consideration the direction of increase or decrease in the expression level. In the case where the direction of increase or decrease is different as compared with the case where another carcinogen was administered, the change was determined to be not significant.

[1] = gene group (A), Unigene No. Rn.167075, mRNA vs vehicle control group
[2] = gene group (C), Unigene No. Rn.120914, mRNA vs vehicle control group
[3] = (C), Unigene Rn.120914, defined direction +, rat liver, oral once daily 28 days

Clc1c(Cl)c(Cl)c(Cl)c(Cl)c1Cl [TS020, Hexachlorobenzene]
Behavior of gene caused by administration of chemical substance, Gene No. 4846 (gene group (A), Unigene No. Rn.144554, mRNA vs vehicle control group): − | Behavior of gene caused by administration of chemical substance, Gene No. 2026 [1]: − | Behavior of gene caused by administration of chemical substance, Gene No. 4218 [1]: − | Behavior of gene caused by administration of chemical substance, Gene No. 6182 (gene group (A), Unigene No. Rn.5834, mRNA vs vehicle control group): + | Behavior of gene caused by administration of chemical substance, Gene No. 5600 (gene group (A), Unigene No. Rn.9836, mRNA vs vehicle control group): − | Behavior of gene caused by administration of chemical substance, Gene No. 1494 (gene group (B), Unigene No. Rn.1430, mRNA vs vehicle control group): + | Behavior of gene caused by administration of chemical substance, Gene No. 2045 (gene group (B), Unigene No. Rn.19329, mRNA vs vehicle control group): + | Behavior of gene caused by administration of chemical substance, Gene No. 2203 (gene group (B), Unigene No. Rn.21240, mRNA vs vehicle control group): + | Behavior of gene caused by administration of chemical substance, Gene No. 533 (gene group (C), Unigene No. Rn.106184, mRNA vs vehicle control group): + | Behavior of gene caused by administration of chemical substance, Gene No. 725 (gene group (C), Unigene No. Rn.108075, mRNA vs vehicle control group): − | Behavior of gene caused by administration of chemical substance, Gene No. 1163 (gene group (C), Unigene No. Rn.11766, mRNA vs vehicle control group): − | Behavior of gene caused by administration of chemical substance, Gene No. 4973 (gene group (C), Unigene No. Rn.118529, mRNA vs vehicle control group): − | Behavior of gene caused by administration of chemical substance, Gene No. 4095 (gene group (C), Unigene No. Rn.119024, mRNA vs vehicle control group): − | Behavior of gene caused by administration of chemical substance, Gene No. 1334 [2]: − | Behavior of gene caused by administration of chemical substance, Gene No. 6620 [2]: − | Behavior of gene caused by administration of chemical substance, Gene No. 6303 (gene group (C), Unigene No. Rn.123063, mRNA vs vehicle control group): − | Behavior of gene caused by administration of chemical substance, Gene No. 5878 (gene group (C), Unigene No. Rn.143213, mRNA vs vehicle control group): − | Behavior of gene caused by administration of chemical substance, Gene No. 1131 (gene group (C), Unigene No. Rn.144946, mRNA vs vehicle control group): − | Behavior of gene caused by administration of chemical substance, Gene No. 1562 (gene group (C), Unigene No. Rn.14744, mRNA vs vehicle control group): − | Behavior of gene caused by administration of chemical substance, Gene No. 1741 (gene group (C), Unigene No. Rn.1647, mRNA vs vehicle control group): − | Behavior of gene caused by administration of chemical substance, Gene No. 893 (gene group (C), Unigene No. Rn.164817, mRNA vs vehicle control group): − | Behavior of gene caused by administration of chemical substance, Gene No. 6026 (gene group (C), Unigene No. Rn.167685, mRNA vs vehicle control group): − | Behavior of gene caused by administration of chemical substance, Gene No. 154 (gene group (C), Unigene No. Rn.185941, mRNA vs vehicle control group): − | Behavior of gene caused by administration of chemical substance, Gene No. 1993 (gene group (C), Unigene No. Rn.18728, mRNA vs vehicle control group): − | Behavior of gene caused by administration of chemical substance, Gene No. 813 (gene group (C), Unigene No. Rn.201760, mRNA vs vehicle control group): − | Behavior of gene caused by administration of chemical substance, Gene No. 2494 (gene group (C), Unigene No. Rn.23969, mRNA vs vehicle control group): − | Behavior of gene caused by administration of chemical substance, Gene No. 2546 (gene group (C), Unigene No. Rn.24561, mRNA vs vehicle control group): − | Behavior of gene caused by administration of chemical substance, Gene No. 3776 (gene group (C), Unigene No. Rn.43232, mRNA vs vehicle control group): − | Behavior of gene caused by administration of chemical substance, Gene No. 3929 (gene group (C), Unigene No. Rn.4620, mRNA vs vehicle control group): − | Behavior of gene caused by administration of chemical substance, Gene No. 1119 (gene group (C), Unigene No. Rn.9757, mRNA vs vehicle control group): − | Behavior of gene caused by administration of chemical substance, Gene No. 6742 (gene group (C), Unigene No. Rn.9779, mRNA vs vehicle control group): − | Behavior of gene caused by administration of chemical substance, Gene No. 5634 (gene group (C), Unigene No. Rn.9862, mRNA vs vehicle control group): − | Behavior of gene caused by administration of chemical substance, Gene No. 5726 (gene group (D), Unigene No. Rn.9939, mRNA vs vehicle control group): −

C1COCCO1 [TS027, 1,4-Dioxane]
Behavior of gene caused by administration of chemical substance, Gene No. 4846 ((A), Unigene Rn.144554, defined direction +, rat liver, oral once daily 28 days): + | Behavior of gene caused by administration of chemical substance, Gene No. 4218 ((A), Unigene Rn.167075, defined direction +, rat liver, oral once daily 28 days, significant = 1.5 times or more or 1/1.5 or less of control): + | Behavior of gene caused by administration of chemical substance, Gene No. 2026 ((A), Unigene Rn.167075, defined direction −, rat liver, oral once daily 28 days): + | Behavior of gene caused by administration of chemical substance, Gene No. 6182 ((A), Unigene Rn.5834, defined direction +, rat liver, oral once daily 28 days): + | Behavior of gene caused by administration of chemical substance, Gene No. 5600 ((A), Unigene Rn.9836, defined direction +, rat liver, oral once daily 28 days): + | Behavior of gene caused by administration of chemical substance, Gene No. 1494 ((B), Unigene Rn.1430, defined direction −, rat liver, oral once daily 28 days): + | Behavior of gene caused by administration of chemical substance, Gene No. 2045 ((B), Unigene Rn.19329, defined direction +, rat liver, oral once daily 28 days): − | Behavior of gene caused by administration of chemical substance, Gene No. 2203 ((B), Unigene Rn.21240, defined direction +, rat liver, oral once daily 28 days): − | Behavior of gene caused by administration of chemical substance, Gene No. 533 ((C), Unigene Rn.106184, defined direction +, rat liver, oral once daily 28 days): + | Behavior of gene caused by administration of chemical substance, Gene No. 725 ((C), Unigene Rn.108075, defined direction −, rat liver, oral once daily 28 days): − | Behavior of gene caused by administration of chemical substance, Gene No. 1163 ((C), Unigene Rn.11766, defined direction +, rat liver, oral once daily 28 days): − | Behavior of gene caused by administration of chemical substance, Gene No. 4973 ((C), Unigene Rn.118529, defined direction −, rat liver, oral once daily 28 days): − | Behavior of gene caused by administration of chemical substance, Gene No. 4095 ((C), Unigene Rn.119024, defined direction −, rat liver, oral once daily 28 days): − | Behavior of gene caused by administration of chemical substance, Gene No. 1334 [3]: − | Behavior of gene caused by administration of chemical substance, Gene No. 6620 [3]: − | Behavior of gene caused by administration of chemical substance, Gene No. 6303 ((C), Unigene Rn.123063, defined direction −, rat liver, oral once daily 28 days): − | Behavior of gene caused by administration of chemical substance, Gene No. 5878 ((C), Unigene Rn.143213, defined direction −, rat liver, oral once daily 28 days): − | Behavior of gene caused by administration of chemical substance, Gene No. 1131 ((C), Unigene Rn.144946, defined direction −, rat liver, oral once daily 28 days): − | Behavior of gene caused by administration of chemical substance, Gene No. 1562 ((C), Unigene Rn.14744, defined direction −, rat liver, oral once daily 28 days): + | Behavior of gene caused by administration of chemical substance, Gene No. 1741 ((C), Unigene Rn.1647, defined direction −, rat liver, oral once daily 28 days): + | Behavior of gene caused by administration of chemical substance, Gene No. 893 ((C), Unigene Rn.164817, defined direction +, rat liver, oral once daily 28 days): − | Behavior of gene caused by administration of chemical substance, Gene No. 6026 ((C), Unigene Rn.167685, defined direction −, rat liver, oral once daily 28 days): − | Behavior of gene caused by administration of chemical substance, Gene No. 154 ((C), Unigene Rn.185941, defined direction −, rat liver, oral once daily 28 days): + | Behavior of gene caused by administration of chemical substance, Gene No. 1993 ((C), Unigene Rn.18728, defined direction −, rat liver, oral once daily 28 days): + | Behavior of gene caused by administration of chemical substance, Gene No. 813 ((C), Unigene Rn.201760, defined direction +, rat liver, oral once daily 28 days): + | Behavior of gene caused by administration of chemical substance, Gene No. 2494 ((C), Unigene Rn.23969, defined direction +, rat liver, oral once daily 28 days): − | Behavior of gene caused by administration of chemical substance, Gene No. 2546 ((C), Unigene Rn.24561, defined direction −, rat liver, oral once daily 28 days): − | Behavior of gene caused by administration of chemical substance, Gene No. 3776 ((C), Unigene Rn.43232, defined direction −, rat liver, oral once daily 28 days): − | Behavior of gene caused by administration of chemical substance, Gene No. 3929 ((C), Unigene Rn.4620, defined direction +, rat liver, oral once daily 28 days): − | Behavior of gene caused by administration of chemical substance, Gene No. 1119 ((C), Unigene Rn.9757, defined direction +, rat liver, oral once daily 28 days): + | Behavior of gene caused by administration of chemical substance, Gene No. 6742 ((C), Unigene Rn.9779, defined direction +, rat liver, oral once daily 28 days): + | Behavior of gene caused by administration of chemical substance, Gene No. 5634 ((C), Unigene Rn.9862, defined direction −, rat liver, oral once daily 28 days): − | Behavior of gene caused by administration of chemical substance, Gene No. 5726 ((D), Unigene Rn.9939, defined direction −, rat liver, oral once daily 28 days): −
